From patent publication US9840478B2 (MERCK SHARP & DOHME CORP., priority 2013, dated 2017) come the findings set out here.

This experiment has as its system HIV-1 (H9IIIB strain). The experiment in a line: Cell-based HIV infection assay using a reporter (Cell-Based), MT4-GFP cells. The note with it: Human immunodeficiency virus 1, MT4-GFP cells infected with HIV-1 H9IIIB; 50% normal human serum; mean of at least two independent experiments; read-out: Cell-based IP. A digest of the protocol: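 MT4-GFP cells (HIV LTR-driven GFP) infected 24 h with HIV-1 H9IIIB at low MOI, then washed and plated with compounds in RPMI + 50% normal human serum, 0.4% DMSO final. Green cells counted at 24 and 48 h; R0 = 48 h/24 h ratio, inhibition normalized to DMSO and triple-drug control; IC50 from 4-parameter fit.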
On to `C[C@@H]1CNC[C@H](CCc2c(F)cncc2NC(=O)[C@@H](N)[C@@H](c2ccc(Cl)cc2)C2CCOCC2)N1S(C)(=O)=O` [Example 182, (βR)-4-chloro-N-(5-fluoro-4-{2-[(2S,6R)-6-methyl-1-(methylsulfonyl)piperazin-2-yl]ethyl}pyridin-3-yl)-β-(tetrahydro-2H-pyran-4-yl)-L-phenylalaninamide], for which the IC50 turned out to be 130 nM.
As for `COC(=O)N[C@H](C(=O)Nc1cccc(F)c1CC[C@H]1CNC[C@@H](C)N1S(C)(=O)=O)[C@@H](c1ccc(Cl)cc1)C1CCOCC1` [Example 183, (βR)-4-chloro-N-(3-fluoro-2-{2-[(2S,6R)-6-methyl-1-(methylsulfonyl)piperazin-2-yl]ethyl}phenyl)-Nα-(methoxycarbonyl)-β-(tetrahydro-2H-pyran-4-yl)-L-phenylalaninamide], the IC50 was determined as 67 nM.
Regarding `COC(=O)N[C@H](C(=O)Nc1cccc(F)c1CC[C@H]1CNC[C@@H](C)N1S(=O)(=O)c1ccccc1)[C@@H](c1ccc(Cl)cc1)c1cccc(F)c1` [Example 184, (βS)-4-chloro-N-(3-fluoro-2-{2-[(2S,6R)-6-methyl-1-(phenylsulfonyl)piperazin-2-yl]ethyl}phenyl)-β-(3-fluorophenyl)-Nα-(methoxycarbonyl)-L-phenylalaninamide], the IC50 stood at 25 nM.
`COC(=O)N[C@H](C(=O)Nc1cccc(F)c1CC[C@H]1CNC[C@H](C)N1S(=O)(=O)c1ccccc1)[C@@H](c1ccc(Cl)cc1)c1cccc(F)c1` [Example 185, (βS)-4-chloro-N-(3-fluoro-2-{2-[(2S,6S)-6-methyl-1-(phenylsulfonyl)piperazin-2-yl]ethyl}phenyl)-β-(3-fluorophenyl)-Nα-(methoxycarbonyl)-L-phenylalaninamide]: the IC50 was 28 nM.
With `COc1ccc(S(=O)(=O)N2[C@@H](CCc3c(F)cccc3NC(=O)[C@@H](N)[C@@H](Cc3ccc(F)cc3)c3ccc(Cl)cc3)CNC[C@@H]2C)cc1` [Example 186, (βS)-4-chloro-β-(4-fluorobenzyl)-N-[3-fluoro-2-(2-{(2S,6S)-1-[(4-methoxyphenyl)sulfonyl]-6-methylpiperazin-2-yl}ethyl)phenyl]-L-phenylalaninamide], the IC50 worked out at 86 nM.
`COC(=O)N[C@H](C(=O)Nc1cccc(F)c1CC[C@H]1CNC[C@H](C)N1S(=O)(=O)c1ccc(OC)cc1)[C@@H](Cc1ccc(F)cc1)c1ccc(Cl)cc1` [Example 187, (βS)-4-chloro-β-(4-fluorobenzyl)-N-[3-fluoro-2-(2-{(2S,6S)-1-[(4-methoxyphenyl)sulfonyl]-6-methylpiperazin-2-yl}ethyl)phenyl]-Nα-(methoxycarbonyl)-L-phenylalaninamide]: the IC50 stood at 35 nM.
Consider `COc1ccc([C@H](c2ccc(Cl)cc2)[C@H](N)C(=O)Nc2cccc(F)c2CC[C@H]2CNC[C@H](C)N2S(=O)(=O)c2ccc(OC(F)(F)F)cc2)cn1` [Example 188, (βS)-4-chloro-N-(3-fluoro-2-{2-[(2S,6S)-6-methyl-1-{[4-(trifluoromethoxy)phenyl]sulfonyl}piperazin-2-yl]ethyl}phenyl)-β-(6-methoxypyridin-3-yl)-L-phenylalaninamide], for which the IC50 turned out to be 55 nM.
Under `COC(=O)N[C@H](C(=O)Nc1cccc(F)c1CC[C@H]1CNC[C@H](C)N1S(=O)(=O)c1ccc(OC(F)(F)F)cc1)[C@@H](c1ccc(Cl)cc1)c1ccc(OC)nc1` [Example 189, (βS)-4-chloro-N-(3-fluoro-2-{2-[(2S,6S)-6-methyl-1-{[4-(trifluoromethoxy)phenyl]sulfonyl}piperazin-2-yl]ethyl}phenyl)-Nα-(methoxycarbonyl)-β-(6-methoxypyridin-3-yl)-L-phenylalaninamide] stands 29 nM; under `COC(=O)N[C@H](C(=O)Nc1cncc(F)c1CC[C@H]1CNC[C@H](C)N1S(C)(=O)=O)[C@@H](c1ccc(F)cc1)c1cc(F)cc(F)c1` [Example 190, (βS)-β-(3,5-difluorophenyl)-4-fluoro-N-(5-fluoro-4-{2-[(2S,6S)-6-methyl-1-(methylsulfonyl)piperazin-2-yl]ethyl}pyridin-3-yl)-Nα-(methoxycarbonyl)-L-phenylalaninamide], 13 nM; under `C[C@H]1CNC[C@H](CCc2c(F)cncc2NC(=O)[C@@H](N)[C@@H](c2ccc(F)cc2)c2cc(F)cc(F)c2)N1S(C)(=O)=O` [Example 191, (βS)-β-(3,5-difluorophenyl)-4-fluoro-N-(5-fluoro-4-{2-[(2S,6S)-6-methyl-1-(methylsulfonyl)piperazin-2-yl]ethyl}pyridin-3-yl)-L-phenylalaninamide], 20 nM.
Regarding `C[C@@H]1CNC[C@H](CCc2c(F)cccc2NC(=O)[C@@H](N)[C@@H](c2ccc(F)cc2)c2cc(F)cc(F)c2)N1S(=O)(=O)C1CC1` [Example 192, (βS)-N-(2-{2-[(2S,6R)-1-(cyclopropylsulfonyl)-6-methylpiperazin-2-yl]ethyl}-3-fluorophenyl)-β-(3,5-difluorophenyl)-4-fluoro-L-phenylalaninamide], the IC50 turned out to be 36 nM.
As for `C[C@H]1CNC[C@H](CCc2c(F)cccc2NC(=O)[C@@H](N)[C@@H](Cc2ccc(F)cc2)c2ccc(Cl)cc2)N1S(=O)(=O)c1ccccc1` [Example 193, (βS)-4-chloro-β-(4-fluorobenzyl)-N-(3-fluoro-2-{2-[(2S,6S)-6-methyl-1-(phenylsulfonyl)piperazin-2-yl]ethyl}phenyl)-L-phenylalaninamide], the IC50 stood at 56 nM.
Under `COC(=O)N[C@H](C(=O)Nc1cccc(F)c1CC[C@H]1CNC[C@H](C)N1S(=O)(=O)c1ccccc1)[C@@H](Cc1ccc(F)cc1)c1ccc(Cl)cc1` [Example 194, (βS)-4-chloro-β-(4-fluorobenzyl)-N-(3-fluoro-2-{2-[(2S,6S)-6-methyl-1-(phenylsulfonyl)piperazin-2-yl]ethyl}phenyl)-Nα-(methoxycarbonyl)-L-phenylalaninamide] stands 34 nM.
Under `C[C@@H]1CNC[C@H](CCc2c(F)cccc2NC(=O)[C@@H](N)[C@@H](Cc2ccc(F)cc2)c2ccc(Cl)cc2)N1S(=O)(=O)c1ccccc1` [Example 195, (βS)-4-chloro-β-(4-fluorobenzyl)-N-(3-fluoro-2-{2-[(2S,6R)-6-methyl-1-(phenylsulfonyl)piperazin-2-yl]ethyl}phenyl)-L-phenylalaninamide] stands 77 nM.
With `COC(=O)N[C@H](C(=O)Nc1cccc(F)c1CC[C@H]1CNC[C@@H](C)N1S(=O)(=O)c1ccccc1)[C@@H](Cc1ccc(F)cc1)c1ccc(Cl)cc1` [Example 196, (βS)-4-chloro-β-(4-fluorobenzyl)-N-(3-fluoro-2-{2-[(2S,6R)-6-methyl-1-(phenylsulfonyl)piperazin-2-yl]ethyl}phenyl)-Nα-(methoxycarbonyl)-L-phenylalaninamide], the IC50 is 49 nM.
With `C[C@H]1CNC[C@H](CCc2c(F)cncc2NC(=O)[C@@H](N)[C@@H](c2ccc(F)cc2)c2cc(F)cc(F)c2)N1S(=O)(=O)C1CC1` [Example 197, (BS)-N-(4-{2-[(2S,6S)-1-(cyclopropylsulfonyl)-6-methylpiperazin-2-yl]ethyl}-5-fluoropyridin-3-yl)-β-(3,5-difluorophenyl)-4-fluoro-L-phenylalaninamide], the IC50 was found to be 18 nM.
`C[C@H]1CNC[C@H](CCc2c(F)cccc2NC(=O)[C@@H](N)[C@@H](c2ccc(Cl)cc2)c2cc(F)cc(F)c2)N1S(C)(=O)=O` [Example 198, (βS)-4-chloro-β-(3,5-difluorophenyl)-N-(3-fluoro-2-{2-[(2S,6S)-6-methyl-1-(methylsulfonyl)piperazin-2-yl]ethyl}phenyl)-L-phenylalaninamide]: the IC50 was determined as 21 nM.
Regarding `C[C@H]1CNC[C@H](CCc2c(F)cccc2NC(=O)[C@@H](N)[C@@H](c2ccc(Cl)cc2)c2cc(F)cc(F)c2)N1S(=O)(=O)C1CC1` [Example 199, (βS)-4-chloro-N-(2-{2-[(2S,6S)-1-(cyclopropylsulfonyl)-6-methylpiperazin-2-yl]ethyl}-3-fluorophenyl)-β-(3,5-difluorophenyl)-L-phenylalaninamide], the IC50 worked out at 20 nM.
Regarding `COC(=O)N[C@H](C(=O)Nc1cccc(F)c1CC[C@H]1CNC[C@H](C)N1S(C)(=O)=O)[C@@H](c1ccc(Cl)cc1)c1cc(F)cc(F)c1` [Example 200, (βS)-4-chloro-β-(3,5-difluorophenyl)-N-(3-fluoro-2-{2-[(2S,6S)-6-methyl-1-(methylsulfonyl)piperazin-2-yl]ethyl}phenyl)-Nα-(methoxycarbonyl)-L-phenylalaninamide], the IC50 stood at 16 nM.
For `COC(=O)N[C@H](C(=O)Nc1cccc(F)c1CC[C@H]1CNC[C@H](C)N1S(=O)(=O)C1CC1)[C@@H](c1ccc(Cl)cc1)c1cc(F)cc(F)c1` [Example 201, (βS)-4-chloro-N-(2-{2-[(2S,6S)-1-(cyclopropylsulfonyl)-6-methylpiperazin-2-yl]ethyl}-3-fluorophenyl)-β-(3,5-difluorophenyl)-Nα-(methoxycarbonyl)-L-phenylalaninamide], the IC50 amounted to 16 nM.
Consider `C[C@H]1CNC[C@H](CCc2c(F)cccc2NC(=O)[C@@H](N)[C@@H](Cc2ccc(F)cc2)c2ccc(Cl)cc2)N1S(C)(=O)=O` [Example 202, (βS)-4-chloro-β-(4-fluorobenzyl)-N-(3-fluoro-2-{2-[(2S,6S)-6-methyl-1-(methylsulfonyl)piperazin-2-yl]ethyl}phenyl)-L-phenylalaninamide], for which the IC50 was 620 nM.
Under `C[C@@H]1CNC[C@H](CCc2c(F)cccc2NC(=O)[C@@H](N)[C@H](c2cccc(F)c2)c2cccc(Cl)c2)N1S(=O)(=O)C1CC1` [Example 203, (βR)-3-chloro-N-(2-{2-[(2S,6R)-1-(cyclopropylsulfonyl)-6-methylpiperazin-2-yl]ethyl}-3-fluorophenyl)-β-(3-fluorophenyl)-L-phenylalaninamide] stands 620 nM.
